# Laboratory results from paper PMC5218480 (PLoS ONE, 2017).
# System: MV-4-11 cells
# Experiment: Gene expression microarray analysis (Affymetrix PrimeView) and GSEA
# Assay type: cell-based, human
# Design: RFU PODN (11730768_x_at) / Fold change /veh PODN (11730768_x_at) / RFU LINC00158 (11744669_a_at) / Fold change /veh LINC00158 (11744669_a_at) / RFU DUSP10 (11751237_a_at) / Fold change /veh DUSP10 (11751237_a_at) / RFU ID3 (11757404_x_at) / Fold change /veh ID3 (11757404_x_at) / RFU PLEKHG5 (11737974_s_at) / Fold change /veh PLEKHG5 (11737974_s_at) / RFU LRRC4B (11730491_at) / Fold change /veh LRRC4B (11730491_at) / RFU GIMAP4 (11747438_a_at) / Fold change /veh GIMAP4 (11747438_a_at) / RFU KRT8 (11758183_x_at) / Fold change /veh KRT8 (11758183_x_at) / RFU CNN1 (11734310_a_at) / Fold change /veh CNN1 (11734310_a_at) / RFU VPS37D (11726825_at) / Fold change /veh VPS37D (11726825_at) / RFU C10orf10 (11716522_x_at) / Fold change /veh C10orf10 (11716522_x_at) / RFU KIR2DL2 /// KIR2DL4 /// KIR2DL5A /// KIR2DL5B /// KIR2DS1 /// KIR2DS2 /// KIR2DS3 /// KIR2DS4 /// KIR3DL3 /// KIR3DL3 /// KIR3DS1 (11738374_at) / Fold change /veh KIR2DL2 /// KIR2DL4 /// KIR2DL5A /// KIR2DL5B /// KIR2DS1 /// KIR2DS2 /// KIR2DS3 /// KIR2DS4 /// KIR3DL3 /// KIR3DL3 /// KIR3DS1 (11738374_at) / RFU C1QL1 (11718748_at) / Fold change /veh C1QL1 (11718748_at) / RFU TMPRSS4 (11747572_a_at) / Fold change /veh TMPRSS4 (11747572_a_at) / RFU HAMP (11756126_x_at) / Fold change /veh HAMP (11756126_x_at) / RFU RNFT2 (11725882_a_at) / Fold change /veh RNFT2 (11725882_a_at) / RFU NR4A2 (11747474_a_at) / Fold change /veh NR4A2 (11747474_a_at) / RFU ABCC12 (11746883_a_at) / Fold change /veh ABCC12 (11746883_a_at) / RFU TMEM136 (11760407_x_at) / Fold change /veh TMEM136 (11760407_x_at) / RFU CLDN22 /// WWC2 (11732394_at) / Fold change /veh CLDN22 /// WWC2 (11732394_at) / RFU HLA-DPB1 (11760878_x_at) / Fold change /veh HLA-DPB1 (11760878_x_at) / RFU SPINT1 (11716480_a_at) / Fold change /veh SPINT1 (11716480_a_at) / RFU GAP43 (11754022_s_at) / Fold change /veh GAP43 (11754022_s_at) / RFU A4GNT (11735810_at) / Fold change /veh A4GNT (11735810_at) / RFU PRB3 (11715151_x_at) / Fold change /veh PRB3 (11715151_x_at) / RFU TUBB4B (11761932_at) / Fold change /veh TUBB4B (11761932_at) / RFU CAPN14 (11732068_a_at) / Fold change /veh CAPN14 (11732068_a_at) / RFU TMCC2 (11721928_a_at) / Fold change /veh TMCC2 (11721928_a_at) / RFU IRGQ (11745062_a_at) / Fold change /veh IRGQ (11745062_a_at) / RFU FAM174B (11720279_a_at) / Fold change /veh FAM174B (11720279_a_at) / RFU TMPRSS4 (11748680_a_at) / Fold change /veh TMPRSS4 (11748680_a_at) / RFU FAM212B (11763350_a_at) / Fold change /veh FAM212B (11763350_a_at) / RFU PLEKHG5 (11743358_a_at) / Fold change /veh PLEKHG5 (11743358_a_at) / RFU ZSCAN30 (11745921_a_at) / Fold change /veh ZSCAN30 (11745921_a_at) / RFU CMKLR1 (11741424_a_at) / Fold change /veh CMKLR1 (11741424_a_at) / RFU LOC101060620 /// MAPK8IP1 (11723275_at) / Fold change /veh LOC101060620 /// MAPK8IP1 (11723275_at) / RFU SPTSSB (11747773_x_at) / Fold change /veh SPTSSB (11747773_x_at) / RFU PRSS12 (11739890_at) / Fold change /veh PRSS12 (11739890_at) / RFU BIN1 (11741810_x_at) / Fold change /veh BIN1 (11741810_x_at) / RFU WNT11 (11732464_a_at) / Fold change /veh WNT11 (11732464_a_at) / RFU C10orf10 (11716521_a_at) / Fold change /veh C10orf10 (11716521_a_at) / RFU C5orf56 (11738089_at) / Fold change /veh C5orf56 (11738089_at) / RFU CYB561 (11721691_x_at) / Fold change /veh CYB561 (11721691_x_at) / RFU ANKRD19P (11752326_a_at) / Fold change /veh ANKRD19P (11752326_a_at) / RFU OR2T12 /// OR2T33 /// OR2T8 (11738714_s_at) / Fold change /veh OR2T12 /// OR2T33 /// OR2T8 (11738714_s_at) / RFU VCAN (11748164_a_at) / Fold change /veh VCAN (11748164_a_at) / RFU JSRP1 (11732532_at) / Fold change /veh JSRP1 (11732532_at) / RFU KRTAP10-11 (11738290_x_at) / Fold change /veh KRTAP10-11 (11738290_x_at) / RFU MYO3A (11730013_a_at) / Fold change /veh MYO3A (11730013_a_at) / RFU EBF3 (11725865_a_at) / Fold change /veh EBF3 (11725865_a_at) / RFU CAMK2N1 (11719241_x_at) / Fold change /veh CAMK2N1 (11719241_x_at) / RFU C5orf56 (11738088_a_at) / Fold change /veh C5orf56 (11738088_a_at) / RFU OLFML3 (11715873_a_at) / Fold change /veh OLFML3 (11715873_a_at) / RFU LOC100653217 /// NTM (11731650_a_at) / Fold change /veh LOC100653217 /// NTM (11731650_a_at) / RFU MAPK11 (11762145_a_at) / Fold change /veh MAPK11 (11762145_a_at) / RFU FIZ1 (11724087_x_at) / Fold change /veh FIZ1 (11724087_x_at) / RFU OASL (11726364_x_at) / Fold change /veh OASL (11726364_x_at) / RFU SOX15 (11748057_x_at) / Fold change /veh SOX15 (11748057_x_at) / RFU CD79A (11719716_a_at) / Fold change /veh CD79A (11719716_a_at) / RFU HIST1H1D (11736915_at) / Fold change /veh HIST1H1D (11736915_at) / RFU CASKIN2 (11723855_a_at) / Fold change /veh CASKIN2 (11723855_a_at) / RFU LOC730098 (11760151_x_at) / Fold change /veh LOC730098 (11760151_x_at) / RFU OR4N2 (11742367_at) / Fold change /veh OR4N2 (11742367_at) / RFU PRRT2 (11749266_a_at) / Fold change /veh PRRT2 (11749266_a_at) / RFU SNX32 (11753110_a_at) / Fold change /veh SNX32 (11753110_a_at) / RFU CDHR5 (11726645_a_at) / Fold change /veh CDHR5 (11726645_a_at) / RFU RCAN1 (11760418_a_at) / Fold change /veh RCAN1 (11760418_a_at) / RFU FAM167A (11723789_a_at) / Fold change /veh FAM167A (11723789_a_at) / RFU FAM26E (11764081_at) / Fold change /veh FAM26E (11764081_at) / RFU ISYNA1 (11749810_s_at) / Fold change /veh ISYNA1 (11749810_s_at) / RFU ACY1 (11761880_at) / Fold change /veh ACY1 (11761880_at) / RFU 11764098_at / Fold change /veh 11764098_at / RFU SAMD14 (11745864_x_at) / Fold change /veh SAMD14 (11745864_x_at) / RFU NPB (11741838_a_at) / Fold change /veh NPB (11741838_a_at) / RFU TMPRSS6 (11731388_a_at) / Fold change /veh TMPRSS6 (11731388_a_at) / RFU KRTAP10-2 (11738614_at) / Fold change /veh KRTAP10-2 (11738614_at) / RFU ARHGAP8 /// PRR5-ARHGAP8 (11727945_x_at) / Fold change /veh ARHGAP8 /// PRR5-ARHGAP8 (11727945_x_at) / RFU KRTAP5-7 /// NADSYN1 (11734609_at) / Fold change /veh KRTAP5-7 /// NADSYN1 (11734609_at) / RFU RASL12 (11751679_a_at) / Fold change /veh RASL12 (11751679_a_at) / RFU CDKN2B (11736163_a_at) / Fold change /veh CDKN2B (11736163_a_at) / RFU PRF1 (11729649_at) / Fold change /veh PRF1 (11729649_at) / RFU, ZNF638 /// ZNF638-IT1 / Fold change vs veh, ZNF638 /// ZNF638-IT1 / RFU, PANK3 / Fold change vs veh, PANK3 / RFU, SH3YL1 / Fold change vs veh, SH3YL1 / RFU, ZEB2 / Fold change vs veh, ZEB2 / RFU, NRIP1 / Fold change vs veh, NRIP1 / RFU, PTTG1IP / Fold change vs veh, PTTG1IP / RFU, CAPN2 / Fold change vs veh, CAPN2 / RFU, MED14 / Fold change vs veh, MED14 / RFU, SNORA58 / Fold change vs veh, SNORA58 / RFU, C1orf63 / Fold change vs veh, C1orf63 / RFU, LRRFIP1 / Fold change vs veh, LRRFIP1 / RFU, NDUFAF7 / Fold change vs veh, NDUFAF7 / RFU, SLC12A2 / Fold change vs veh, SLC12A2 / RFU, IBTK / Fold change vs veh, IBTK / RFU, ESF1 / Fold change vs veh, ESF1 / Fold change vs veh, TMEM50B / RFU, TAOK1 / Fold change vs veh, TAOK1 / RFU, ACBD3 / Fold change vs veh, ACBD3 / RFU, TMA16 / Fold change vs veh, TMA16 / RFU, RWDD3 / Fold change vs veh, RWDD3 / RFU, BCAT1 / Fold change vs veh, BCAT1 / RFU, EDEM3 / Fold change vs veh, EDEM3 / RFU, TMEM33 / Fold change vs veh, TMEM33 / RFU, WDR75 / Fold change vs veh, WDR75 / RFU, AHCTF1 / Fold change vs veh, AHCTF1 / RFU, TFRC / Fold change vs veh, TFRC / RFU, ZDHHC17 / Fold change vs veh, ZDHHC17 / RFU, NOM1 / Fold change vs veh, NOM1 / RFU, ARL8B / Fold change vs veh, ARL8B / RFU, ZBTB11 / Fold change vs veh, ZBTB11 / RFU, TAMM41 / Fold change vs veh, TAMM41 / RFU, KIAA1704 /// LOC100996395 / Fold change vs veh, KIAA1704 /// LOC100996395 / RFU, ING1 / Fold change vs veh, ING1 / RFU, TRMT61B / Fold change vs veh, TRMT61B / RFU, FUBP3 / Fold change vs veh, FUBP3 / RFU, TP53 / Fold change vs veh, TP53 / RFU, TNKS2 / Fold change vs veh, TNKS2 / RFU, ZFP14 / Fold change vs veh, ZFP14 / RFU, ACTR2 / Fold change vs veh, ACTR2 / RFU, PPP3R1 / Fold change vs veh, PPP3R1 / RFU, PIK3R1 / Fold change vs veh, PIK3R1 / RFU, HNRNPA1 / Fold change vs veh, HNRNPA1 / RFU, RNF170 / Fold change vs veh, RNF170 / RFU, ZNF28 / Fold change vs veh, ZNF28 / RFU, RNGTT / Fold change vs veh, RNGTT / RFU, OGT / Fold change vs veh, OGT / RFU, BRD1 / Fold change vs veh, BRD1 / RFU, MARS / Fold change vs veh, MARS / RFU, ZNF655 / Fold change vs veh, ZNF655 / RFU, FAHD1 / Fold change vs veh, FAHD1 / RFU, BDP1 / Fold change vs veh, BDP1 / RFU, LRRCC1 / Fold change vs veh, LRRCC1 / RFU, ARID1A / Fold change vs veh, ARID1A / RFU, ZNF146 / Fold change vs veh, ZNF146 / RFU, ZNF330 / Fold change vs veh, ZNF330 / RFU, GPN3 / Fold change vs veh, GPN3 / RFU, C9orf123 / Fold change vs veh, C9orf123 / RFU, N4BP2L2 / Fold change vs veh, N4BP2L2 / RFU, ARFIP1 / Fold change vs veh, ARFIP1 / RFU, FAM179B / Fold change vs veh, FAM179B / RFU, BCL10 / Fold change vs veh, BCL10 / RFU, UHRF1BP1L / Fold change vs veh, UHRF1BP1L / RFU, BET1 / Fold change vs veh, BET1 / RFU, CNOT2 / Fold change vs veh, CNOT2 / RFU, ZNF268 / Fold change vs veh, ZNF268 / Fold change vs veh, ZNF507 / RFU, DGCR2 / Fold change vs veh, DGCR2 / RFU, WDSUB1 / Fold change vs veh, WDSUB1 / Fold change vs veh, HSP90B1 /// MIR3652 / RFU, ADSS / Fold change vs veh, ADSS / RFU, GK / Fold change vs veh, GK / RFU, ZNF148 / Fold change vs veh, ZNF148 / RFU, TAF9 / Fold change vs veh, TAF9 / RFU, SLC1A5 / Fold change vs veh, SLC1A5 / RFU, SLMO2 / Fold change vs veh, SLMO2 / RFU, ABCC4 / Fold change vs veh, ABCC4 / RFU, LOC101060439 /// RAP1B / Fold change vs veh, LOC101060439 /// RAP1B / RFU, RFX7 / Fold change vs veh, RFX7 / RFU, GTPBP10 / Fold change vs veh, GTPBP10 / RFU, CNEP1R1 / Fold change vs veh, CNEP1R1 / RFU, BIVM-ERCC5 /// ERCC5 / Fold change vs veh, BIVM-ERCC5 /// ERCC5 / RFU, ILF3 / Fold change vs veh, ILF3 / RFU 11762660_at / Fold change /veh 11762660_at / RFU VCAN (11757783_s_at) / Fold change /veh VCAN (11757783_s_at) / RFU DDX43 (11728927_at) / Fold change /veh DDX43 (11728927_at) / RFU KRT8 (11758188_x_at) / Fold change /veh KRT8 (11758188_x_at) / RFU NKD1 (11759106_at) / Fold change /veh NKD1 (11759106_at) / RFU SRD5A1 (11742802_a_at) / Fold change /veh SRD5A1 (11742802_a_at) / RFU TPSAB1 /// TPSB2 (11721975_s_at) / Fold change /veh TPSAB1 /// TPSB2 (11721975_s_at) / RFU GSTM3 (11746129_a_at) / Fold change /veh GSTM3 (11746129_a_at) / RFU IL23R (11737362_x_at) / Fold change /veh IL23R (11737362_x_at) / RFU TMEM51 (11727254_a_at) / Fold change /veh TMEM51 (11727254_a_at) / RFU PIWIL2 (11732686_x_at) / Fold change /veh PIWIL2 (11732686_x_at) / RFU ORM1 (11744905_x_at) / Fold change /veh ORM1 (11744905_x_at) / RFU CCDC152 (11743942_at) / Fold change /veh CCDC152 (11743942_at) / RFU ECM1 (11717891_a_at) / Fold change /veh ECM1 (11717891_a_at) / RFU IL23R (11748794_a_at) / Fold change /veh IL23R (11748794_a_at) / RFU TNFAIP8L3 (11732012_x_at) / Fold change /veh TNFAIP8L3 (11732012_x_at) / RFU MBOAT4 (11741988_at) / Fold change /veh MBOAT4 (11741988_at) / RFU 11764193_at / Fold change /veh 11764193_at / RFU TMEM53 (11763286_at) / Fold change /veh TMEM53 (11763286_at) / RFU MAGEB2 (11727129_at) / Fold change /veh MAGEB2 (11727129_at) / RFU TMEM200A (11744735_a_at) / Fold change /veh TMEM200A (11744735_a_at) / RFU CCDC152 (11751479_a_at) / Fold change /veh CCDC152 (11751479_a_at) / RFU FAM211A (11726209_a_at) / Fold change /veh FAM211A (11726209_a_at) / RFU RGS16 (11746705_a_at) / Fold change /veh RGS16 (11746705_a_at) / RFU VCAN (11755009_s_at) / Fold change /veh VCAN (11755009_s_at) / RFU RHOB (11743442_s_at) / Fold change /veh RHOB (11743442_s_at) / RFU RGS16 (11720943_a_at) / Fold change /veh RGS16 (11720943_a_at) / RFU RGS16 (11720944_at) / Fold change /veh RGS16 (11720944_at) / RFU, VPS4B / Fold change vs veh, VPS4B / RFU, CREB1 / Fold change vs veh, CREB1 / RFU, DNAJC13 / Fold change vs veh, DNAJC13 / RFU, GNAQ / Fold change vs veh, GNAQ / RFU, CDK5R1 / Fold change vs veh, CDK5R1 / RFU, ZRANB3 / Fold change vs veh, ZRANB3 / RFU, CUL4A / Fold change vs veh, CUL4A / RFU, CCNY / Fold change vs veh, CCNY / RFU, UFL1 / Fold change vs veh, UFL1 / RFU, COG3 / Fold change vs veh, COG3 / RFU, DIAPH2 / Fold change vs veh, DIAPH2 / RFU, SKA2 / Fold change vs veh, SKA2 / RFU, AFF3 / Fold change vs veh, AFF3 / RFU, LMF1 / Fold change vs veh, LMF1 / RFU, IPO11 / Fold change vs veh, IPO11 / RFU, DFFB / Fold change vs veh, DFFB / RFU, FOXP1 / Fold change vs veh, FOXP1 / RFU, CARD8 / Fold change vs veh, CARD8 / RFU, STRN3 / Fold change vs veh, STRN3 / RFU, ADK / Fold change vs veh, ADK / RFU, RASSF2 / Fold change vs veh, RASSF2 / RFU, WIPF1 / Fold change vs veh, WIPF1 / RFU, LARP1B / Fold change vs veh, LARP1B / RFU, RASA1 / Fold change vs veh, RASA1 / RFU, RB1 / Fold change vs veh, RB1 / RFU, PPFIA1 / Fold change vs veh, PPFIA1 / RFU, MAT2A / Fold change vs veh, MAT2A / RFU, CCT5 / Fold change vs veh, CCT5 / RFU, WDR92 / Fold change vs veh, WDR92 / RFU, CUX1 / Fold change vs veh, CUX1 / RFU, TTC7A / Fold change vs veh, TTC7A / RFU, TMEM135 / Fold change vs veh, TMEM135 / RFU, DEPTOR / Fold change vs veh, DEPTOR / RFU, CPM / Fold change vs veh, CPM / RFU, DNAJB6 / Fold change vs veh, DNAJB6 / RFU, CACNA2D3 / Fold change vs veh, CACNA2D3 / RFU, DTX4 / Fold change vs veh, DTX4 / RFU, TFCP2 / Fold change vs veh, TFCP2 / RFU, GMCL1 /// GMCL1P1 / Fold change vs veh, GMCL1 /// GMCL1P1 / RFU, AEBP2 / Fold change vs veh, AEBP2 / RFU, SNHG1 /// SNORD22 /// SNORD25 /// SNORD26 /// SNORD27 /// SNORD28 /// SNORD29 /// SNORD31 / Fold change vs veh, SNHG1 /// SNORD22 /// SNORD25 /// SNORD26 /// SNORD27 /// SNORD28 /// SNORD29 /// SNORD31 / Fold change (Aza/veh), C12orf56 (ProbeSet 11735607_a_at) / Fold change (ACY-1035/veh), C12orf56 (ProbeSet 11735607_a_at) / Fold change (Aza/veh), FGFR1OP (ProbeSet 11751329_s_at) / Fold change (ACY-1035/veh), FGFR1OP (ProbeSet 11751329_s_at) / Fold change (Aza/veh), VPS36 (ProbeSet 11739960_a_at) / Fold change (ACY-1035/veh), VPS36 (ProbeSet 11739960_a_at) / RFU SYPL1 (11715823_x_at) / Fold change /veh SYPL1 (11715823_x_at) / RFU IGFBP7 (11715501_s_at) / Fold change /veh IGFBP7 (11715501_s_at) / RFU REEP3 (11722064_at) / Fold change /veh REEP3 (11722064_at) / RFU IGLL1 (11728026_x_at) / Fold change /veh IGLL1 (11728026_x_at): dose or concentration left out as unconfirmed
# Settings: ProbeSet 11728676_at; LIST B
smiles,measurement,value
Nc1ncn([C@@H]2O[C@H](CO)[C@@H](O)[C@H]2O)c(=O)n1 [azacitidine],"RFU, MED14",205.61 RFU
